In assay [1] the target is T1, mGAT1 (Mus musculus, UniProt P31648). The assay can be described thus: [3H]GABA uptake inhibition, stable CHO cells. The assay is classed as cell-based. Also noted: gene Slc6a1; full-length ORF in pcDNA3; no tag mentioned.
Assay [2] addresses T2, mGAT3 (Mus musculus, UniProt P31650).
T2 sequence (P31650 1-627): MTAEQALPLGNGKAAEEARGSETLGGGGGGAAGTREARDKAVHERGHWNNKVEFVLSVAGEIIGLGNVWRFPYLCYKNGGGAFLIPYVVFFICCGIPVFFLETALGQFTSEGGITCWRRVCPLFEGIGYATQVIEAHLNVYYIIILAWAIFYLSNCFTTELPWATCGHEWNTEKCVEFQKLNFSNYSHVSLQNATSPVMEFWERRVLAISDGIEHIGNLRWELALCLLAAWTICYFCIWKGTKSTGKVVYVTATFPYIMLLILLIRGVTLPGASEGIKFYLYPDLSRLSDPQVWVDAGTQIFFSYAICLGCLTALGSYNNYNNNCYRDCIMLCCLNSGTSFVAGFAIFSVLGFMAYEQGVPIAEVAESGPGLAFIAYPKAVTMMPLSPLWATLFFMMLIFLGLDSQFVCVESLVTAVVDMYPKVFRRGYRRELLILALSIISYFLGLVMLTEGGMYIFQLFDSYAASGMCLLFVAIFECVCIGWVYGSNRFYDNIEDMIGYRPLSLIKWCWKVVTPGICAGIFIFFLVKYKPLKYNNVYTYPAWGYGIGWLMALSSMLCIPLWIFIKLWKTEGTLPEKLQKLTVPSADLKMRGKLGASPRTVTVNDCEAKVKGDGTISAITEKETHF
The assay can be described thus: [3H]GABA uptake inhibition, stable CHO cells. Also noted: gene Slc6a11; RIKEN FANTOM cDNA in pcDNA3; no tag mentioned. In kind it is cell-based.

The target in assay [3] is T3, mGAT2 (Mus musculus, UniProt P31649).
T3 sequence (P31649 1-602): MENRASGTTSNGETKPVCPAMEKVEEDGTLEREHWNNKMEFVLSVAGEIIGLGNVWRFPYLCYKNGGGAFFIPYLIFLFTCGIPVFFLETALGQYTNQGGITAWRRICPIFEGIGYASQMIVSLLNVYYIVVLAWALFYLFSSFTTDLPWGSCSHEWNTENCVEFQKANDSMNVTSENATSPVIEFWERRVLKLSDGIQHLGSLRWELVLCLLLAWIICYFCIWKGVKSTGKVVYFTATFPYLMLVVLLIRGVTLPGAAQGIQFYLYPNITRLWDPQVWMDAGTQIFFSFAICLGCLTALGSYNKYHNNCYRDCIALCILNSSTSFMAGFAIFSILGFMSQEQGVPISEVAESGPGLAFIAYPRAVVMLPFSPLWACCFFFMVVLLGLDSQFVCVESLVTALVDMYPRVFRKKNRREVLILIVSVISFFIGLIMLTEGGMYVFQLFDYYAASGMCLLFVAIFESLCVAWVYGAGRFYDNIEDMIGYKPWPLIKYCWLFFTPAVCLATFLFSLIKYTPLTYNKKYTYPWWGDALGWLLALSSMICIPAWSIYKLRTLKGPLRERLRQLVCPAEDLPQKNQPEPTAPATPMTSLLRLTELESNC
The assay can be described thus: [3H]GABA uptake inhibition, stable CHO cells. In kind it is cell-based. Further details: gene Slc6a13; RIKEN FANTOM cDNA in pcDNA3; no tag mentioned.

For assay [4], the target named is T3, mGAT2. Description: cell-based. Also noted: gene Slc6a13.
Source text: (§1) Those were designated CHO/mGAT1, CHO/mGAT2, CHO/mGAT3 and CHO/mBGT1. […] For uptake assays in cell lines stably expressing mouse GATs, CHO cells were transfected with cDNA using FuGENE6 transfection reagent according to the manufacturer’s directions, and subsequently cultured in the medium containing G418 to select positive clones.
The target in assay [5] is T1, mGAT1. Description: cell-based. Also noted: gene Slc6a1.
Source text: as §1
Assay [6] has as its target T2, mGAT3. The assay can be described thus: cell-based. Further details: gene Slc6a11.
Source text: as §1
A further assay concerns the target T4, rSERT (Rattus norvegicus, UniProt P31652).
T4 construct: gene Slc6a4; previously cloned cDNA; no tag mentioned
The assay can be described thus: [3H]5-HT uptake inhibition, stable CHO cells. The assay is classed as cell-based.

T4 sequence (P31652 whole entry): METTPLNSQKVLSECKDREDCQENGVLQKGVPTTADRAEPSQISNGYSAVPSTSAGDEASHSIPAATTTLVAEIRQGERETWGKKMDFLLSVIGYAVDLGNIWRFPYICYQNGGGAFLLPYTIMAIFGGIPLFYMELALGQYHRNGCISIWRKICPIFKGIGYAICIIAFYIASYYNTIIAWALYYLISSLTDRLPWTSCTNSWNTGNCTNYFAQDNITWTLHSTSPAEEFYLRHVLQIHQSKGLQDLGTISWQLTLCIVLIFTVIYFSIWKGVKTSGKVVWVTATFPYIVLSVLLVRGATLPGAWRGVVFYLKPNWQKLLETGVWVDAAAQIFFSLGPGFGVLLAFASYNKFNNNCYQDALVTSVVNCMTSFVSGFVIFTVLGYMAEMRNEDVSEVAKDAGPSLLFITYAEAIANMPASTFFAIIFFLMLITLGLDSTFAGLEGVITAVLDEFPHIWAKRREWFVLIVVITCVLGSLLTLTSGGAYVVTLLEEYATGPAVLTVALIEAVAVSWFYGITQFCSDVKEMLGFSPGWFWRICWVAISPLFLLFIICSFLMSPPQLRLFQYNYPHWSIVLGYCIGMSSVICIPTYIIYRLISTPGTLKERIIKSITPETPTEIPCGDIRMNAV

For the compound `CNCCCC1c2ccccc2C=Cc2ccccc21` [Protriptyline], the IC50 (commonly the concentration that inhibits the measured activity by half) is 167 ± 22.1 µM against mGAT1 [1], 113 µM against mGAT3 [2] and 77.2 µM against mGAT2 [3].
`C[N+](C)(C)CC(=O)O` [Betaine]: the IC50 against mGAT2 [4], against mGAT1 [5] and on mGAT3 [6] was greater than 10000 µM throughout.
`CNCCC=C1c2ccccc2CCc2ccccc21` [Nortriptyline]: the IC50 at mGAT1 [1] turned out to be 136 ± 21.9 µM; against mGAT3 [2], 74.1 µM; on mGAT2 [3] it was 87.1 µM.
The like results for `CNCCCN1c2ccccc2CCc2ccccc21` [Desipramine] were, in that order, 268 ± 36.7 µM, 80.3 µM and 123 µM.
As for `CC(CN(C)C)CN1c2ccccc2CCc2ccccc21` (stereo not shown) [Trimipramine], the IC50 came out at 181 ± 72.9 µM at mGAT1 [1], 5.89 µM against rSERT, 64.6 µM on mGAT3 [2] and 85.6 µM at mGAT2 [3].
For the compound `CN(C)CCC=C1c2ccccc2CCc2ccccc21` [Amitriptyline], the IC50 came to 101 ± 11.7 µM at mGAT1 [1], 61.5 µM against mGAT3 [2] and 45.8 µM at mGAT2 [3].
Consider `NCCC(=O)O` [β-Alanine], for which the IC50 against mGAT2 [4] was 25 µM; on mGAT1 [5], greater than 300 µM; on mGAT3 [6], 18 µM.
Turning to `CN(C)CCCN1c2ccccc2CCc2ccccc21` [Imipramine], the figures for the IC50 on mGAT1 [1], on mGAT3 [2] and at mGAT2 [3] were 223 ± 58.5 µM, 108 µM and 106 µM, respectively.

Values taken from publication PMC3317675 (International Journal of Molecular Sciences, 2012).
